Test: monitoring the stability of the solution (hypothiocyanite concentration in water leaving the reactor)
Type: physicochemical
Excerpt: The hypothiocyanite ions (OSCN^−) are able to react with the sulfhydryl groups of a 5,5′-dithiobis (2-nitrobenzoic acid) molecule which has previously been reduced in the presence of an excess of sodium borohydride.
This reduced molecule absorbs light at a wavelength of 412 nm.
When the hypothiocyanite ions (OSCN^−) oxidize the sulfhydryl groups, the absorbance at 412 nm decreases in proportion to the quantity of ions which are present in the sample, thereby enabling them to be quantified.
The methods described above are used to monitor the change in the concentration of hypothiocyanite ion, i.e. OSCN^−, in solutions leaving the reactor, the results of which are obtained are illustrated in FIGS. 3 and 4, which depict the curve for the changes in the concentration of hypothiocyanite ion, OSCN^−, in the water leaving the reactor over a period of 1 day (FIGS. 4) and 4 days (FIG. 3).

N#CSO [OSCN^−, hypothiocyanite ion]
concentration of OSCN^− (after 10 hours (FIG. 4)): 500000 µM | fall in concentration of OSCN^− (after 20 hours (FIG. 4)): 50% | residual concentration of hypothiocyanite ion, relative to the initial concentration (after 80 hours (FIG. 3)): 16% | concentration of OSCN^− (initial, solution leaving the reactor (FIG. 4)): 600000 µM

From patent US7754445B2, “Method for the enzymatic production of a curing agent and its fluid state” (TMI Europe, priority 2001, dated 2010)
